Here are results for 13 molecules from patent publication US5707977A, “Watersoluble azole antifungals” (Janssen Pharmaceutica, N.V., priority 1996, dated 1998).

Series [1] can be described thus: Solubility in water and in 0.1N HCl (1 hour shaking at room temperature, UV-spectroscopy). The format is physicochemical. As to the method: An excess of compound was added to 5 ml of solvent (the type of solvent is specified in the table). The mixture was shaken during 1 hour at room temperature. The precipitate was filtered off. The concentration of the compound was measured via UV-spectroscopy and is shown in the column "Solubility".

Series [2] relates to Candida albicans. Put plainly: Mouse triple mycosis model: vaginal candidosis. The format is in vivo. The following applies: treatment for 5 days, mice. More on the design: unit not given here. How it is done: (§1) The test compounds were evaluated for their activity in a mouse model of fungal infection in which three mycoses--vaginal candidosis, cutaneous trichophytosis and disseminated aspergillosis--were established simultaneously. The mice, in groups of 10, were pretreated with subcutaneous injections of oestradiol valerate (500 μg) then inoculated on day 0 with the following: 100 000 colony forming units (CFU)/g of Aspergillus fumigatus B 19119 intravenously, a suspension containing 10^8 Candida albicans cells intravaginally and a aqueous suspension of Trichophyton quinckeanum on lightly scarified dorsal skin. Treatment with the test compounds (orally or intravenously) was begun on the day of infection and continued for 5 days.

Series [3] deals with Candida albicans. Put plainly: Mouse disseminated Candida model. The format is in vivo. The following applies: IV route; treatment repeated daily for 9 days; mice. As to the method: Mice in groups of 10 were infected intravenously with 8×10^5 CFU of Candida albicans. Treatment was begun on the day of infection and repeated daily for 9 days. Candida albicans CFU/g kidney were measured for all mice that died spontaneously or were killed on day 10.
The table indicates the lowest concentrations of the shown compounds that achieved a reduction in mean Candida counts of 1 log (i.e. a 10-fold reduction) or more, either in the triple mycosis model or the disseminated Candida infection; also the lowest concentrations that reduced mean skin scores below 1.0 in the cutaneous dermatophytosis component of this model (NT=nor tested, IV=intravenous).

Another series has as its system Trichophyton quinckeanum. Put plainly: Mouse triple mycosis model: cutaneous dermatophytosis (trichophytosis). Format: in vivo. More on the design: unit not given here. Particulars: treatment for 5 days, mice. How it is done: as §1
Setting [4] is: water, solvent: water, measured pH 6.65 to 7.01.
The mark [5] stands for this setting: 0.1n hcl, solvent: 0.1N HCl, measured pH 1.25 to 1.75.

Converted amounts (≈) assume the structure as drawn. Where a name gives a salt, the structure may show the parent alone.

Take `CC(C)(C)C(Cn1ncn(-c2ccc(N3CCN(c4ccc(OC[C@H]5CO[C@](Cn6cncn6)(c6ccc(F)cc6F)O5)cc4)CC3)cc2)c1=O)OP(=O)(O)Oc1ccccc1` (mixture of isomers) [Compound 2, (±)-cis-1-[[4-[4-[4-[4-[[2-(2,4-difluorophenyl)-2-(1H-1,2,4-triazol-1-ylmethyl)-1,3-dioxolan-4-yl]methoxy]phenyl]-1-piperazinyl]phenyl]-4,5-dihydro-5-oxo-1H-1,2,4-triazol-1-yl]methyl]-2,2-dimethylpropyl phenyl sodium phosphate]: the solubility at 1 h in series [1] (solvent: water, measured pH 6.65 to 7.01) is over 6000 µg/mL.

Turning to `CC(C)(C)C(Cn1ncn(-c2ccc(N3CCN(c4ccc(OC[C@H]5CO[C@](Cn6cncn6)(c6ccc(F)cc6F)O5)cc4)CC3)cc2)c1=O)OP(=O)(O)O` (mixture of isomers) [Compound 3, (±)-ammonium cis-1-[[4-[4-[4-[4-[[2-(2,4-difluorophenyl)-2-(1H-1,2,4-triazol-1-ylmethyl)-1,3-dioxolan-4-yl]methoxy]phenyl]-1-piperazinyl]phenyl]-4,5-dihydro-5-oxo-1H-1,2,4-triazol-1-yl]methyl]-2,2-dimethylpropyl phosphate], the “lowest concentration, Vaginal Candida CFU reduced by 1 log or more” value with Candida albicans [2] (IV route) and in the series on Candida albicans [2] (oral route) was 2.5 each time. Besides, the “lowest concentration, Kidney Candida CFU reduced by 1 log or more” value in the series on Candida albicans [3] came out at 10. This molecule showed a solubility at 1 h in series [1] (setting [4]) of 31900 µg/mL. The “lowest concentration, Dermatophyte skin score reduced to ≤1” value in the series with Trichophyton quinckeanum (IV route) and in the series with Trichophyton quinckeanum (oral route) was 2.5 throughout. Regarding `CC(C)(C)C(Cn1ncn(-c2ccc(N3CCN(c4ccc(OC[C@H]5CO[C@](Cn6cncn6)(c6ccc(Cl)cc6)O5)cc4)CC3)cc2)c1=O)OP(=O)(O)O` (mixture of isomers) [Compound 7, (±)-ammonium cis-1-[[4-[4-[4-[4-[[2-(4-chlorophenyl)-2-(1H-1,2,4-triazol-1-yl-methyl)-1,3-dioxolan-4-yl]methoxy]phenyl]-1-piperazinyl]phenyl]-4,5-dihydro-5-oxo-1H-1,2,4-triazol-1-yl]methyl]-2,2-dimethylpropyl phosphate(ester) monohydrate], in series [1] (setting [4]), the solubility at 1 h came to 350 µg/mL. Same read-out and setting: the same measure for `CC(C)(C)C(Cn1ncn(-c2ccc(N3CCN(c4ccc(OC[C@H]5CO[C@](Cn6cncn6)(c6ccc(F)cc6)O5)cc4)CC3)cc2)c1=O)OP(=O)(O)O` (mixture of isomers) [Compound 9, (±)-ammonium cis-1-[[4-[4-[4-[4-[[2-(4-fluorophenyl)-2-(1H-1,2,4-triazol-1-ylmethyl)-1,3-dioxolan-4-yl]methoxy]phenyl]-1-piperazinyl]phenyl]-4,5-dihydro-5-oxo-1H-1,2,4-triazol-1-yl]methyl]-2,2-dimethylpropyl phosphate]: 2650 µg/mL. On to `CC(C)(C)C(Cn1ncn(-c2ccc(N3CCN(c4ccc(OC[C@H]5CO[C@](Cn6cncn6)(c6ccc(F)cc6F)O5)cc4)CC3)cc2)c1=O)OP(=O)(O)O` (mixture of isomers) [Compound 17, (±)-cis-4-[4-[4-[4-[[2-(2,4-difluorophenyl)-2-(1H-1,2,4-triazol-1-ylmethyl)-1,3-dioxolan-4-yl]methoxy]phenyl]-1-piperazinyl]phenyl]-2-[3,3-dimethyl-2-(phosphonooxy)butyl]-2,4-dihydro-3H-1,2,4-triazol-3-one hemihydrate], for which the “lowest concentration, Vaginal Candida CFU reduced by 1 log or more” value in the series on Candida albicans [2] (IV route, hemihydrate) is under 2.5. Besides, the “lowest concentration, Dermatophyte skin score reduced to ≤1” value with Trichophyton quinckeanum (IV route, hemihydrate) was under 2.5.

In the case of `CC(C)(C)C(Cn1ncn(-c2ccc(N3CCN(c4ccc(OC[C@H]5CO[C@](Cn6cncn6)(c6ccc(F)cc6F)O5)cc4)CC3)cc2)c1=O)OC(=O)CCN` (mixture of isomers) [Compound 36, (±)-cis-1-[[4-[4-[4-[4-[[2-(2,4-difluorophenyl)-2-(1H-1,2,4-triazol-1-ylmethyl)-1,3-dioxolan-4-yl]methoxy]phenyl]-1-piperazinyl]phenyl]-4,5-dihydro-5-oxo-1H-1,2,4-triazol-1-yl]methyl]-2,2-dimethylpropyl β-alanine monohydrochloride], in series [1] (setting [5]), the solubility at 1 h was over 6000 µg/mL. On the same count and under the same terms, the same measure for `CC(C)(C)C(Cn1ncn(-c2ccc(N3CCN(c4ccc(OC[C@H]5CO[C@](Cn6cncn6)(c6ccc(F)cc6F)O5)cc4)CC3)cc2)c1=O)OC(=O)CCN1CCCC1` (mixture of isomers) [Compound 37, (±)-cis-1-[[4-[4-[4-[4-[[2-(2,4-difluorophenyl)-2-(1H-1,2,4-triazol-1-ylmethyl)-1,3-dioxolan-4-yl]methoxy]phenyl]-1-piperazinyl]phenyl]-4,5-dihydro-5-oxo-1H-1,2,4-triazol-1-yl]methyl]-2,2-dimethylpropyl 1-pyrrolidinepropanoate . monohydrochloride . monohydrate]: over 6000 µg/mL.

For `CN1CCN(CC(=O)OC(Cn2ncn(-c3ccc(N4CCN(c5ccc(OC[C@H]6CO[C@](Cn7cncn7)(c7ccc(F)cc7F)O6)cc5)CC4)cc3)c2=O)C(C)(C)C)CC1` (mixture of isomers) [Compound 34, (±)-cis-1-[[4-[4-[4-[4-[[2-(2,4-difluorophenyl)-2-(1H-1,2,4-triazol-1-ylmethyl)-1,3-dioxolan-4-yl]methoxy]phenyl]-1-piperazinyl]phenyl]-4,5-dihydro-5-oxo-1H-1,2,4-triazol-1-yl]methyl]-2,2-dimethylpropyl 4-methyl-1-piperazineacetate monohydrochloride], the “lowest concentration, Vaginal Candida CFU reduced by 1 log or more” value with Candida albicans [2] (IV route) and with Candida albicans [2] (oral route) was 2.5 in each case. In addition, the “lowest concentration, Kidney Candida CFU reduced by 1 log or more” value in the series with Candida albicans [3] was 5. This molecule returned a Solubility in series [1] (solvent: 0.1N HCl, measured pH 1.25 to 1.75, monohydrochloride, 60 min) of over 6000 µg/mL. Besides, the “lowest concentration, Dermatophyte skin score reduced to ≤1” value with Trichophyton quinckeanum (IV route) and in the series on Trichophyton quinckeanum (oral route) was 2.5 throughout. For `CN1CCN(CC(=O)OC(Cn2ncn(-c3ccc(N4CCN(c5ccc(OC[C@H]6CO[C@](Cn7cncn7)(c7ccc(F)cc7F)O6)cc5)CC4)cc3)c2=O)C(C)(C)C)CC1` (stereo partly drawn) [Compound 29], the solubility at 1 h in series [1] (setting [5]) came to 4890 µg/mL (≈ 5.71 mM). In series [1] (setting [5]), `CCN(CC)CC(=O)OC(Cn1ncn(-c2ccc(N3CCN(c4ccc(OC[C@H]5CO[C@](Cn6cncn6)(c6ccc(F)cc6F)O5)cc4)CC3)cc2)c1=O)C(C)(C)C` (stereo partly drawn) [Compound 30] yielded a solubility at 1 h of 5220 µg/mL (≈ 6.29 mM). Same read-out and setting: the same measure for `CC(C)(C)C(Cn1ncn(-c2ccc(N3CCN(c4ccc(OC[C@H]5CO[C@](Cn6cncn6)(c6ccc(F)cc6F)O5)cc4)CC3)cc2)c1=O)OC(=O)CN1CCN(CCO)CC1` (stereo partly drawn) [Compound 31]: over 6000 µg/mL. In series [1] (setting [5]), `CN1CCN(CCC(=O)OC(Cn2ncn(-c3ccc(N4CCN(c5ccc(OC[C@H]6CO[C@](Cn7cncn7)(c7ccc(F)cc7F)O6)cc5)CC4)cc3)c2=O)C(C)(C)C)CC1` (stereo partly drawn) [Compound 33] registered a solubility at 1 h of over 6000 µg/mL. In series [1] (setting [5]), `CC(C)(C)C(Cn1ncn(-c2ccc(N3CCN(c4ccc(OC[C@H]5CO[C@](Cn6cncn6)(c6ccc(F)cc6F)O5)cc4)CC3)cc2)c1=O)OC(=O)CN` (stereo partly drawn) [Compound 38] showed a solubility at 1 h of over 6000 µg/mL.
